The results in this text go back to ChEMBL document CHEMBL3745614, “Potent and selective N-(4-sulfamoylphenyl)thiourea-based GPR55 agonists” (Eur J Med Chem, 2016).

For assay [1], the target named is T1, Sodium- and chloride-dependent glycine transporter 1 (Homo sapiens, UniProt P48067).
T1 sequence (P48067 whole entry): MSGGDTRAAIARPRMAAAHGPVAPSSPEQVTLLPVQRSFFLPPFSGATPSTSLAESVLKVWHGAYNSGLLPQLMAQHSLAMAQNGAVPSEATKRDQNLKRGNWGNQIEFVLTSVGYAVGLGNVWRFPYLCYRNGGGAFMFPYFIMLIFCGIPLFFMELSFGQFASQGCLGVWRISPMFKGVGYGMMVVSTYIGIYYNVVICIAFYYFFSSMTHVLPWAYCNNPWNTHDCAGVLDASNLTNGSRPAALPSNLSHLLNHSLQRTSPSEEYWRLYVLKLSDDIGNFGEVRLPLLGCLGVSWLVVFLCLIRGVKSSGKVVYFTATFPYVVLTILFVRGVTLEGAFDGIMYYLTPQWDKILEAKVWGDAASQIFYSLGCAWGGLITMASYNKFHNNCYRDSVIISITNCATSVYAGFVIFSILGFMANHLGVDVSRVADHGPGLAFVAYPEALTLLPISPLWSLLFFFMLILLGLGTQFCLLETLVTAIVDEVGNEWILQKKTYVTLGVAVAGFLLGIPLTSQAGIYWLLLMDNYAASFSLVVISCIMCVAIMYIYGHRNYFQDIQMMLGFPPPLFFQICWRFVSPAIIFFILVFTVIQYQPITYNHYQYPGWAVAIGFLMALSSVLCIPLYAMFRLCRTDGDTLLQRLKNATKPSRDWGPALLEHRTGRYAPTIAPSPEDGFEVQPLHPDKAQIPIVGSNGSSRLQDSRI
The assay can be described thus: Inhibition of GlyT1 (unknown origin) expressed in HEK293 cells by scintillation proximity assay. The class given is cell-based. Background: Scintillation proximity formats need no separation of bound from free tracer.

For assay [2], the target named is G-protein coupled receptor 55 (Homo sapiens, UniProt Q9Y2T6). Kind of assay: Agonist activity at human GPR55 expressed in Saccharomyces cerevisiae by beta-galactosidase reporter assay.
Chain of G-protein coupled receptor 55 (Q9Y2T6 whole entry): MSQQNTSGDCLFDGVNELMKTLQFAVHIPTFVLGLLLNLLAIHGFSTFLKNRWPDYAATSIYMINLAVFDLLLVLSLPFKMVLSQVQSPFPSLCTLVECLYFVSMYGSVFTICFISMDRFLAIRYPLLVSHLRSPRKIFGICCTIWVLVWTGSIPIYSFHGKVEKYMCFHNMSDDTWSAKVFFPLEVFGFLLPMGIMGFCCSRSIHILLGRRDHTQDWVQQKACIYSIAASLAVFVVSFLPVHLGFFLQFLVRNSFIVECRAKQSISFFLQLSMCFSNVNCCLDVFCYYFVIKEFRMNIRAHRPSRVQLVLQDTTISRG

Take `COC(C)c1ccc(N2CCN(C(=O)c3cc(S(C)(=O)=O)ccc3-c3ccc(F)cc3)CC2)c(F)c1` (centres undefined): the IC50 (as a rule, the concentration at which inhibition is half-maximal) in assay [1] is 20 nM. The half-maximal effective concentration (EC50) (usually the concentration giving half of the maximal effect) in assay [2] came out at 316 nM.
For `CS(=O)(=O)c1ccc(-c2ccc(F)cc2)c(C(=O)N2CCN(c3ccc(N)cc3F)CC2)c1`, in that order: 10000 nM and 158 nM.
